Where no end group is shown, it is not given here.
These compounds were tested on CEA CTL T-Vac8 (assay: initial screening cytotoxicity assay, 111In release from peptide-incubated C1R-A2 cells with T-Vac8 CTL). Conditions: peptide at 1, 0.1 and 0.01 µg/ml, E:T=1.45:1, 4 hours.
Assay type: cell-based, human

| Compound | activation of T-Vac8 cytotoxicity (lysis of peptide-incubated targets) |
| --- | --- |
| YLSGSNLNL [CAP1-5S] | provided stimulation, albeit at reduced levels compared to CAP1 itself |
| YLSGACLNL [CAP1-6C] | equal to or better than CAP1 |
| YLSGINLNL [CAP1-5I] | provided stimulation, albeit at reduced levels compared to CAP1 itself |
| YLSGFNLNL [CAP1-5F] | provided stimulation, albeit at reduced levels compared to CAP1 itself |
| CC(C)C[C@H](NC(=O)[C@H](CC(N)=O)NC(=O)[C@H](CC(C)C)NC(=O)[C@H](CC(=O)O)NC(=O)[C@H](C)NC(=O)CNC(=O)[C@H](CO)NC(=O)[C@H](CC(C)C)NC(=O)[C@@H](N)Cc1ccc(O)cc1)C(=O)O [CAP1-6D] | equal to or better than CAP1 |
| CC[C@H](C)[C@H](NC(=O)[C@H](CC(N)=O)NC(=O)[C@H](C)NC(=O)CNC(=O)[C@H](CO)NC(=O)[C@H](CC(C)C)NC(=O)[C@@H](N)Cc1ccc(O)cc1)C(=O)N[C@@H](CC(N)=O)C(=O)N[C@@H](CC(C)C)C(=O)O [CAP1-7I] | appeared to be active |
